Assay results published in US11306078B2, “Piperidine CXCR7 receptor modulators” (IDORSIA PHARMACEUTICALS LTD., priority 2016, dated 2022).

biological target: human chemokine receptor CXCR7 (Homo sapiens (Human), UniProt P25106); assay: Tango CXCR7-bla U2OS beta-arrestin recruitment assay (beta-lactamase reporter, FRET), antagonism of CXCL12/SDF1-α; assay type: cell-based; conditions: antagonistic effect on CXCR7; Tango CXCR7-bla U2OS cells, CXCL12/SDF1-α at its EC80;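 further: compounds preincubated 15 min before CXCL12 addition, then 22 h at 37 °C, FRET emission ratio read with CCF4-AM substrate after 2 h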
Sequence (P25106 whole entry): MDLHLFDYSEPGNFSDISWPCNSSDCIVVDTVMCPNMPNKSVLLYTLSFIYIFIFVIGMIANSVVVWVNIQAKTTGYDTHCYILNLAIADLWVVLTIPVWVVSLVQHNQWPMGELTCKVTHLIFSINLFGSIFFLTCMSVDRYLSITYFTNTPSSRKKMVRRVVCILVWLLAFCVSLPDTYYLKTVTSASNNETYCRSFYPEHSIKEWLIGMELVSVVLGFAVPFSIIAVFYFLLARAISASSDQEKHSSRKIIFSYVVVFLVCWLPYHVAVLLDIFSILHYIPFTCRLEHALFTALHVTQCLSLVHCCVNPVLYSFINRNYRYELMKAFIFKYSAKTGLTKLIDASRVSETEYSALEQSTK

IC50 [nM]	SMILES
510	CC(C)(CF)NC(=O)[C@@H]1CN(C2CCCCC2)CC[C@H]1NC(=O)c1cc(-c2ccc(F)cc2F)on1 (racemic) [Example 1.079, rac-(3R*,4R*)-1-Cyclohexyl-4-{[5-(2,4-difluoro-phenyl)-isoxazole-3-carbonyl]-amino}-piperidine-3-carboxylic acid (2-fluoro-1,1-dimethyl-ethyl)-amide]
244	CC(C)(CO)NC(=O)[C@@H]1CN(C2CCCCC2)CC[C@H]1NC(=O)c1cc(-c2ccc(F)cc2F)on1 (racemic) [Example 1.088, rac-(3R*,4R*)-1-Cyclohexyl-4-{[5-(2,4-difluoro-phenyl)-isoxazole-3-carbonyl]-amino}-piperidine-3-carboxylic acid (2-hydroxy-1,1-dimethyl-ethyl)-amide]
667	CN(C)C(=O)[C@@H]1CN(C2CCCC2)CC[C@H]1NC(=O)c1cn(-c2ccc(F)cc2F)nn1 (racemic) [Example 1.096, rac-(3R*,4R*)-1-Cyclopentyl-4-{[1-(2,4-difluoro-phenyl)-1H-[1,2,3]triazole-4-carbonyl]-amino}-piperidine-3-carboxylic acid dimethylamide]
964	O=C(N[C@@H]1CCN(C2CCCCC2)C[C@H]1C(=O)N1CCC1)c1cn(-c2ccc(F)cc2F)nn1 (racemic) [Example 1.104, rac-1-(2,4-Difluoro-phenyl)-1H-[1,2,3]triazole-4-carboxylic acid [(3R*,4R*)-3-(azetidine-1-carbonyl)-1-cyclohexyl-piperidin-4-yl]-amide]
902	COCC(C)(C)NC(=O)[C@@H]1CN(C2CCCC2)CC[C@H]1NC(=O)c1cn(-c2ccc(F)cc2F)nn1 (racemic) [Example 1.109, rac-(3R*,4R*)-1-Cyclopentyl-4-{[1-(2,4-difluoro-phenyl)-1H-[1,2,3]triazole-4-carbonyl]-amino}-piperidine-3-carboxylic acid (2-methoxy-1,1-dimethyl-ethyl)-amide]
332	COCC(C)(C)NC(=O)[C@@H]1CN(C2CCCCC2)CC[C@H]1NC(=O)c1cc(-c2c(F)cc(F)cc2F)on1 (racemic) [Example 1.111, rac-(3R*,4R*)-1-Cyclohexyl-4-{[5-(2,4,6-trifluoro-phenyl)-isoxazole-3-carbonyl]-amino}-piperidine-3-carboxylic acid (2-methoxy-1,1-dimethyl-ethyl)-amide]
227	COCC(C)(C)NC(=O)[C@@H]1CN(C2CCCC2)CC[C@H]1NC(=O)c1cc(-c2c(F)cc(F)cc2F)on1 (racemic) [Example 1.112, rac-(3R*,4R*)-1-Cyclopentyl-4-{[5-(2,4,6-trifluoro-phenyl)-isoxazole-3-carbonyl]-amino}-piperidine-3-carboxylic acid (2-methoxy-1,1-dimethyl-ethyl)-amide]

The remaining lines, values behind:

SMILES	IC50 [nM]
Cc1csc(CNC(=O)[C@@H]2CN(C3CCCCC3)CC[C@H]2NC(=O)c2cc(-c3ccc(F)cc3F)on2)n1 (racemic) [Example 1.068, rac-(3R*,4R*)-1-Cyclohexyl-4-{[5-(2,4-difluoro-phenyl)-isoxazole-3-carbonyl]-amino}-piperidine-3-carboxylic acid (4-methyl-thiazol-2-ylmethyl)-amide]	512
CN(CCc1ccccn1)C(=O)[C@@H]1CN(C2CCCCC2)CC[C@H]1NC(=O)c1cc(-c2ccc(F)cc2F)on1 (racemic) [Example 1.075, rac-(3R*,4R*)-1-Cyclohexyl-4-{[5-(2,4-difluoro-phenyl)-isoxazole-3-carbonyl]-amino}-piperidine-3-carboxylic acid methyl-(2-pyridin-2-yl-ethyl)-amide]	44
CC(C)(CS(C)(=O)=O)NC(=O)[C@@H]1CN(C2CCCCC2)CC[C@H]1NC(=O)c1cc(-c2ccc(F)cc2F)on1 (racemic) [Example 1.081, rac-(3R*,4R*)-1-Cyclohexyl-4-{[5-(2,4-difluoro-phenyl)-isoxazole-3-carbonyl]-amino}-piperidine-3-carboxylic acid (2-methanesulfonyl-1,1-dimethyl-ethyl)-amide]	118
CN(C)C(=O)[C@@H]1CN(C2CCCCC2)CC[C@H]1NC(=O)c1cn(-c2ccc(F)cc2F)nn1 (racemic) [Example 1.095, rac-(3R*,4R*)-1-Cyclohexyl-4-{[1-(2,4-difluoro-phenyl)-1H-[1,2,3]triazole-4-carbonyl]-amino}-piperidine-3-carboxylic acid dimethylamide]	254
CN(C)C(=O)[C@@H]1CN(CC2CC2)CC[C@H]1NC(=O)c1cn(-c2ccc(F)cc2F)nn1 (racemic) [Example 1.097, rac-(3R*,4R*)-1-Cyclopropylmethyl-4-{[1-(2,4-difluoro-phenyl)-1H-[1,2,3]triazole-4-carbonyl]-amino}-piperidine-3-carboxylic acid dimethylamide]	442
CN(C)C(=O)[C@@H]1CN(C2CCCC2)CC[C@H]1NC(=O)c1cc(-c2c(F)cc(F)cc2F)on1 (racemic) [Example 1.099, rac-(3R*,4R*)-1-Cyclopentyl-4-{[5-(2,4,6-trifluoro-phenyl)-isoxazole-3-carbonyl]-amino}-piperidine-3-carboxylic acid dimethylamide]	131
CN(C)C(=O)[C@@H]1CN(C2CCCCC2)CC[C@H]1NC(=O)c1cc(-c2ccc(F)cc2F)no1 (racemic) [Example 1.102, rac-(3R*,4R*)-1-Cyclohexyl-4-{[3-(2,4-difluoro-phenyl)-isoxazole-5-carbonyl]-amino}-piperidine-3-carboxylic acid dimethylamide]	111
CN(C)C(=O)[C@@H]1CN(C2CCCC2)CC[C@H]1NC(=O)c1cc(-c2ccc(F)cc2F)no1 (racemic) [Example 1.103, rac-(3R*,4R*)-1-Cyclopentyl-4-{[3-(2,4-difluoro-phenyl)-isoxazole-5-carbonyl]-amino}-piperidine-3-carboxylic acid dimethylamide]	274
O=C(N[C@@H]1CCN(C2CCCCC2)C[C@H]1C(=O)N1CCC1)c1cc(-c2c(F)cc(F)cc2F)on1 (racemic) [Example 1.105, rac-5-(2,4,6-Trifluoro-phenyl)-isoxazole-3-carboxylic acid [(3R*,4R*)-3-(azetidine-1-carbonyl)-1-cyclohexyl-piperidin-4-yl]-amide]	430
O=C(N[C@@H]1CCN(C2CCCC2)C[C@H]1C(=O)N1CCC1)c1cc(-c2c(F)cc(F)cc2F)on1 (racemic) [Example 1.106, rac-5-(2,4,6-Trifluoro-phenyl)-isoxazole-3-carboxylic acid [(3R*,4R*)-3-(azetidine-1-carbonyl)-1-cyclopentyl-piperidin-4-yl]-amide]	248
O=C(N[C@@H]1CCN(CC2CC2)C[C@H]1C(=O)N1CCC1)c1cc(-c2c(F)cc(F)cc2F)on1 (racemic) [Example 1.107, rac-5-(2,4,6-Trifluoro-phenyl)-isoxazole-3-carboxylic acid [(3R*,4R*)-3-(azetidine-1-carbonyl)-1-cyclopropylmethyl-piperidin-4-yl]-amide]	520
COCC(C)(C)NC(=O)[C@@H]1CN(CC2CC2)CC[C@H]1NC(=O)c1cc(-c2c(F)cc(F)cc2F)on1 (racemic) [Example 1.113, rac-(3R*,4R*)-1-Cyclopropylmethyl-4-{[5-(2,4,6-trifluoro-phenyl)-isoxazole-3-carbonyl]-amino}-piperidine-3-carboxylic acid (2-methoxy-1,1-dimethyl-ethyl)-amide]	118
